From patent US7592457B2 (Korea Research Institute of Chemical Technology, priority 2004, dated 2009)

Experiments:
[1] = target: T1, human serotonin 5-HT6 receptor (Homo sapiens, UniProt P50406); assay: [3H]LSD binding at cloned 5-HT6 receptors; conditions: for IC50: [3H]LSD 1.87 nM, cloned receptor membranes, 37° C., 60 min, read-out: IC50; for inhibition at 10 µM: read-out: Binding affinity (Inhibition rate % at 10 μM) 5HT6
T1 construct: made in house; host or cells: Sf21 insect cells (pBacPAK8 baculovirus vector)

D1 = D1 (Homo sapiens, UniProt P21728); assay: Radioligand binding for selectivity, D1; conditions: read-out: Binding affinity (Inhibition rate % at 10 μM) D1
hD2L receptor = target: T2, hD2L receptor (Homo sapiens, UniProt P14416); assay: Radioligand binding, dopamine D2 ([3H]spiperone); conditions: read-out: Binding affinity (Inhibition rate % at 10 μM) D2
T2 construct: purchased BioSignal Packard Inc., Montreal, Canada
Method: (§1) The radioligands used were [^3H] spiperone (for hD2L and hD3 receptors, 1 nM) and [^3H] YM-09151-2 (for hD4.2 receptor, 0.06 nM). Radioligand bindings were performed by the protocols provided by the supplier of receptor membranes (BioSignal Packard Inc., Montreal, Canada). Briefly, the buffer used in D2 or D3 receptor binding assay was 50 mM Tris-HCl (pH 7.4), 10 mM MgCl2, 1 mM EDTA, or 50 mM Tris-HCl (pH 7.4), 5 mM MgCl2, 5 mM EDTA, 5 mM KCl, 1.5 mM CaCl2, 120 mM NaCl, respectively. In [^3H] YM-09151-2 receptor binding assays, the buffer containing 50 mM Tris-HCl (pH 7.4), 5 mM MgCl2, 5 mM EDTA, 5 mM KCl and 1.5 mM CaCl2 was used. Nonspecific binding was determined with haloperidol (10 μM) or clozapine (10 μM) for D2 and D3, and D4 receptors, respectively. Competition binding studies were carried out with 7-8 concentrations of the test compound run in duplicate tubes, and isotherms from three assays were calculated by computerized nonlinear regression analysis (GraphPad Prism Program, San Diego, […]) to yield median inhibitory concentration (IC50) values.

hD3 receptor = target: T3, hD3 receptor (Homo sapiens, UniProt P35462); assay: Radioligand binding, dopamine D3 ([3H]spiperone); conditions: read-out: Binding affinity (Inhibition rate % at 10 μM) D3
T3 construct: purchased BioSignal Packard Inc., Montreal, Canada
Method: as §1

hD4.2 receptor = target: T4, hD4.2 receptor (Homo sapiens, UniProt P21917, DEL265-296); assay: Radioligand binding, dopamine D4 ([3H]YM-09151-2); conditions: read-out: Binding affinity (Inhibition rate % at 10 μM) D4
T4 construct: purchased BioSignal Packard Inc., Montreal, Canada
T4 sequence (P21917 with tags, fused parts or gaps DEL265-296): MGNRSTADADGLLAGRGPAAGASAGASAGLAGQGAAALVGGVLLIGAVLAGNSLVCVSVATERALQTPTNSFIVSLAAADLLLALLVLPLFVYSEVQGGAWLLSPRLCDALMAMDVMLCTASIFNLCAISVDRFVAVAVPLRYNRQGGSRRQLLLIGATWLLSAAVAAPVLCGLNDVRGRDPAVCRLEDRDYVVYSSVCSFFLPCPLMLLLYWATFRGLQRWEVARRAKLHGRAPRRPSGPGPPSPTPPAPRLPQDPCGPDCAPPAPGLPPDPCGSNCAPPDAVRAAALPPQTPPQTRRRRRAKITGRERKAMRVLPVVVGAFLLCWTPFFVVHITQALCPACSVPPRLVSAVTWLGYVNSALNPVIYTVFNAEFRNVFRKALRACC
Method: as §1

5-HT1a = target: T5, 5-HT1a (Homo sapiens, UniProt P08908); assay: Radioligand binding, 5-HT1a ([3H]8-OH-DPAT); conditions: read-out: Binding affinity (Inhibition rate % at 10 μM) 5HT1a
T5 construct: purchased Euroscreen/BioSignal Packard Inc
T5 sequence (P08908 1-422): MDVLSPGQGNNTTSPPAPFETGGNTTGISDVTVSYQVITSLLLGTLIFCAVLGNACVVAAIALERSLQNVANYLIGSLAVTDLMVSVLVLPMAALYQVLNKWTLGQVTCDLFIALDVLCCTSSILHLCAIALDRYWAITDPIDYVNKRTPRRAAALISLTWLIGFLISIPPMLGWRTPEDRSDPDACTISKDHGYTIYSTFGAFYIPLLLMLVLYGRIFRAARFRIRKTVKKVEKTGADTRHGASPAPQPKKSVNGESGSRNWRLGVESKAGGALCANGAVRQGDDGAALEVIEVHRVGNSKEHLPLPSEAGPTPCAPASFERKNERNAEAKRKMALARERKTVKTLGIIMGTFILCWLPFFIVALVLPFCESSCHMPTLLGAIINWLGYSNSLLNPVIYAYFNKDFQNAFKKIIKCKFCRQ
Method: (§2) Radioligand bindings were performed according to the test method provided by the supplier of receptor membrane (Euroscreen/BioSignal Packard Inc.).

5-HT2a = target: T6, 5-HT2a (Homo sapiens, UniProt P28223); assay: Radioligand binding, 5-HT2a ([3H]Ketanserin); conditions: read-out: Binding affinity (Inhibition rate % at 10 μM) 5HT2a
T6 construct: purchased Euroscreen/BioSignal Packard Inc
Method: as §2

5-HT2c = target: T7, 5-HT2c (Homo sapiens, UniProt P28335); assay: Radioligand binding, 5-HT2c ([3H]Mesulergine); conditions: read-out: Binding affinity (Inhibition rate % at 10 μM) 5HT2c
T7 construct: purchased Euroscreen/BioSignal Packard Inc
T7 sequence (P28335 33-458): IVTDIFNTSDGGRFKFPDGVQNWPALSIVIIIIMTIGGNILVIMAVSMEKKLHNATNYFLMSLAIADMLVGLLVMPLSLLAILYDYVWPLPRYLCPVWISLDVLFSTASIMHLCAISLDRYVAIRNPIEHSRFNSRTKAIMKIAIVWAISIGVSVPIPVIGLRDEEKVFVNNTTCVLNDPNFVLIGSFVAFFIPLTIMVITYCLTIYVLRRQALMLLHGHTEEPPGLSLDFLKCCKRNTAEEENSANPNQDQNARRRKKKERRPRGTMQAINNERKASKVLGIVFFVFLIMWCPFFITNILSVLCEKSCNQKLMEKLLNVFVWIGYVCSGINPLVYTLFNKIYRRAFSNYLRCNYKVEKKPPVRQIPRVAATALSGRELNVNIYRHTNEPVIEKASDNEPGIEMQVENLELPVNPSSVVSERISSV
Method: as §2

5-HT7 = target: T8, 5-HT7 (Homo sapiens, UniProt P34969); assay: Radioligand binding, 5-HT7 ([3H]LSD); conditions: read-out: Binding affinity (Inhibition rate % at 10 μM) 5HT7
T8 construct: purchased Euroscreen/BioSignal Packard Inc
Method: as §2

T8 sequence (P34969 whole entry): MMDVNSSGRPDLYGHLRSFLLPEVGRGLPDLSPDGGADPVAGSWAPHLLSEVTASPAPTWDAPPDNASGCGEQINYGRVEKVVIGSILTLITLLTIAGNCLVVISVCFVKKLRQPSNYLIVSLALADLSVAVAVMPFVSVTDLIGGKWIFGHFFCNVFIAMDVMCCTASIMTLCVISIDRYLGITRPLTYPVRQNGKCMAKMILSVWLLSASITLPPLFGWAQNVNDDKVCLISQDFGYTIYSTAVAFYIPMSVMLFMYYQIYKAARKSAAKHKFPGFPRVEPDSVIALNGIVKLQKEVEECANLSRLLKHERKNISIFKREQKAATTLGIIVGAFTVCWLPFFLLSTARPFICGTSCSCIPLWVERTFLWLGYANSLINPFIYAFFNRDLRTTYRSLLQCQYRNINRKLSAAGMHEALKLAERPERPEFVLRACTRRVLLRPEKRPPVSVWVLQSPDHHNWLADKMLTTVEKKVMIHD
T6 sequence (P28223 whole entry): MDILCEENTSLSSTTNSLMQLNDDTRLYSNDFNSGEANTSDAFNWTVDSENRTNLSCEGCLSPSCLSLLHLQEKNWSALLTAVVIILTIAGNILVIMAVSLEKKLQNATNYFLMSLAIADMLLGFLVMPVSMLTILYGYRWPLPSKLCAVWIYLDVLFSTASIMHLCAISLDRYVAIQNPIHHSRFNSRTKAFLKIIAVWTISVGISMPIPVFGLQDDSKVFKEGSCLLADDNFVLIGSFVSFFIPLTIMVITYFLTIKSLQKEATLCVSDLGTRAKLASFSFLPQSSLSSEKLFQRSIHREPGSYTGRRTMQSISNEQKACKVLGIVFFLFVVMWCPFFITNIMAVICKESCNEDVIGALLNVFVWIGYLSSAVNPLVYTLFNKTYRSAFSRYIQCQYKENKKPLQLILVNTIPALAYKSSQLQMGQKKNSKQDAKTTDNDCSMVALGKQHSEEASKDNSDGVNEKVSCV
T2 sequence (P14416 whole entry): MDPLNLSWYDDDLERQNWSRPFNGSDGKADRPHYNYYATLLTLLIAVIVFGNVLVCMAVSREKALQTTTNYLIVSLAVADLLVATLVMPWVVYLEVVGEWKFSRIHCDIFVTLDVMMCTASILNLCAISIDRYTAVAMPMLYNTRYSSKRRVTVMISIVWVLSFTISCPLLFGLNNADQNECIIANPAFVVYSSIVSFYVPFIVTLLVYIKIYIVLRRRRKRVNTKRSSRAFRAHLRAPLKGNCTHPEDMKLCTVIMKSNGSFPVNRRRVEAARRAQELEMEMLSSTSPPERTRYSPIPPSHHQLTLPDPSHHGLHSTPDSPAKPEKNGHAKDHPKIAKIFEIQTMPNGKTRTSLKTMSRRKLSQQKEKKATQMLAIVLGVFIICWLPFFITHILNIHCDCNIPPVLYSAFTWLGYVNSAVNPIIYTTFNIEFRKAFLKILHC
Chain of D1 (P21728 whole entry): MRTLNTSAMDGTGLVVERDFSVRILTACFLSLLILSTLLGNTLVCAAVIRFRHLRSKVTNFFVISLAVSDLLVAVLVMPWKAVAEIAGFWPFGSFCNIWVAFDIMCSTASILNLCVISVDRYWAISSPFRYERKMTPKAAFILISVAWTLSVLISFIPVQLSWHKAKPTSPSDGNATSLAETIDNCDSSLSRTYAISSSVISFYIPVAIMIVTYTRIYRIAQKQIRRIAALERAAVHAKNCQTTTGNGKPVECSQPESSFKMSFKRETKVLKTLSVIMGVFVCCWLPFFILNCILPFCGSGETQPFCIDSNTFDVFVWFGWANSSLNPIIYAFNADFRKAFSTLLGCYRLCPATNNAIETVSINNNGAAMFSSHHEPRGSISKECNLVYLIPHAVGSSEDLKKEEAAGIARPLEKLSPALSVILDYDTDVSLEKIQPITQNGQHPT
T1 sequence (P50406 whole entry): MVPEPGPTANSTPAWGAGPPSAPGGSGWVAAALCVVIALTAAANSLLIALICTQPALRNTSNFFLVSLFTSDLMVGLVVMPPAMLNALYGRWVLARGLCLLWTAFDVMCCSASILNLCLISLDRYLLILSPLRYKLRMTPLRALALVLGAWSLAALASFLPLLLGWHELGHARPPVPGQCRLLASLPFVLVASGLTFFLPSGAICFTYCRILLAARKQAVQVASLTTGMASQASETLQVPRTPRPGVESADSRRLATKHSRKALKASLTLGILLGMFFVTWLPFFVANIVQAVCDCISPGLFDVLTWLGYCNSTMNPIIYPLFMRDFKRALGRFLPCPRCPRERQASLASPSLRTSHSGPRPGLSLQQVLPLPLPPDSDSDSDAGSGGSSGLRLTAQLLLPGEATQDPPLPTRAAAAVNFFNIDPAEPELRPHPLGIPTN
T3 sequence (P35462 whole entry): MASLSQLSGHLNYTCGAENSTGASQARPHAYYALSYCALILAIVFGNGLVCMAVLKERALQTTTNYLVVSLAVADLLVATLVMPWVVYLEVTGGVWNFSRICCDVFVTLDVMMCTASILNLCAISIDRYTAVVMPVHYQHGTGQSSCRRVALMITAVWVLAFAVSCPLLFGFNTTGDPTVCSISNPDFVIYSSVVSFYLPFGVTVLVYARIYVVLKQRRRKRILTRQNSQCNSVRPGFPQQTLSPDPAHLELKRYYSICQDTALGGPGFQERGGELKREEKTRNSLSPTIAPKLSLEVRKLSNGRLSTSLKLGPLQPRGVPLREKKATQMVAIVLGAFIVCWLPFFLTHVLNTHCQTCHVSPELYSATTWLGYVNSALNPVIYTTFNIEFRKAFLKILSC

Row | SMILES | IC50 [1] | inhibition at 10 µM [1] | inhibition at 10 µM (D1) | inhibition at 10 µM (hD2L receptor) | inhibition at 10 µM (hD3 receptor) | inhibition at 10 µM (hD4.2 receptor) | inhibition at 10 µM (5-HT1a) | inhibition at 10 µM (5-HT2a) | inhibition at 10 µM (5-HT2c) | inhibition at 10 µM (5-HT7) | melting point | 5-HT6 affinity compared with known selective antagonists ([1]; in words)
1 | CC1(c2ccccc2)C(=O)Nc2ccccc2C1=O (stereo not shown) [Example 2, 3-methyl-3-phenyl-1H-quinoline-2,4-dione] | 1080 nM | 73.2% | 10.2% | 5.6% | 12.2% | 0% | 15% | 8.4% | 30.6% | 10.4% | 194 to 196 °C | 
2 | CC1(c2ccc(O)cc2)C(=O)Nc2ccccc2C1=O (stereo not shown) [Example 34, 3-(4-hydroxy-phenyl)-3-methyl-1H-quinoline-2,4-dione] | 1260 nM | 70.8% | 15.8% | 17.3% | 25.4% | 0% | 19.8% | 13.5% | 20.1% | 0.9% |  | 
3 | CC1(c2ccc([N+](=O)[O-])cc2)C(=O)Nc2cc(Cl)c(Cl)cc2C1=O (stereo not shown) [Example 36, 6,7-dichloro-3-methyl-3-(4-nitro-phenyl)-1H-quinoline-2,4-dione] | 645 nM | 71.9% | 12.6% | 16.5% | 11.9% | 0% | 42.1% | 13.2% | 8.2% | 16.5% |  | 
4 | CNc1ccc(C2(C)C(=O)Nc3cc(Cl)cc(Cl)c3C2=O)cc1 (stereo not shown) [Example 39, 5,7-dichloro-3-methyl-3-(4-methylamino-phenyl)-1H-quinoline-2,4-dione] | 418 nM | 72% | 38.5% | 19.8% | 8.4% | 10.2% | 23% | 12.1% | 13.1% | 9.1% |  | 
5 | CCNc1ccc(C2(C)C(=O)Nc3cc(Cl)cc(Cl)c3C2=O)cc1 (stereo not shown) [Example 41, 5,7-dichloro-3-methyl-3-(4-ethylamino-phenyl)-1H-quinoline-2,4-dione] | 46 nM | 67.7% | 24% | 25.2% | 12.6% | 0% | 15.7% | 10.8% | 14% | 15.4% |  | almost same affinities as or better affinities than known selective antagonists
6 | C[C@H](NC(=O)Nc1cccc([C@@]2(C)C(=O)Nc3cc(Cl)cc(Cl)c3C2=O)c1)c1ccccc1 [Example 43, 1-(R)-[3-(5,7-dichloro-3-methyl-2,4-dioxo-1,2,3,4-tetrahydro-quinoline-3-yl) -phenyl]-3-(1-(S) -phenyl-ethyl) -urea] | 1110 nM | 70.6% | 30.1% | 5.7% | 24% | 6.1% | 18% | 21.3% | 0% | 5% |  | 
7 | C[C@H](NC(=O)Nc1cccc([C@]2(C)C(=O)Nc3cc(Cl)cc(Cl)c3C2=O)c1)c1ccccc1 [Example 44, 1-(S)-[3-(5,7-dichloro-3-methyl-2,4-dioxo-1,2,3,4-tetrahydro-quinoline-3-yl) -phenyl]-3-(1-(S) -phenyl-ethyl) -urea] | 791 nM | 73.8% | 35% | 11.5% | 16.2% | 0% | 25.4% | 58.5% | 21.5% | 32.2% |  | 
8 | CC1(c2ccc(Br)cc2Br)C(=O)Nc2cc(Cl)ccc2C1=O (stereo not shown) [Example 45, 7-chloro-3-(2,4-dibromo-phenyl)-3-methyl-1H-quinoline-2,4-dione] | 2220 nM | 66% | 42.3% | 13% | 5.6% | 0% | 60.3% | 23% | 31.6% | 29.5% |  | 
9 | CN1CCN(c2cc(Cl)c3c(c2)NC(=O)C(C)(c2ccc(O)cc2)C3=O)CC1 (stereo not shown) [Example 47, 5-chloro-3-(4-hydroxy-phenyl)-3-methyl-7-(4-methyl-piperazine-1-yl)-1H-quinoline-2,4-dione] | 1060 nM | 71.9% | 20.9% | 27.2% | 14.2% | 12.8% | 27.1% | 42.8% | 12.4% | 16.3% |  | 
10 | CN1CCN(c2cc(Cl)c3c(c2)NC(=O)C(C)(c2ccc(N)cc2)C3=O)CC1 (stereo not shown) [Example 48, 3-(4-amino-phenyl) -5-chloro-3-methyl-7-(4-methyl-piperazine-1-yl)-1H-quinoline-2,4-dione] | 1080 nM | 71.6% | 27.4% | 19.6% | 8.7% | 0% | 35% | 37.2% | 2.5% | 5.6% |  | 
11 | CN1CCN(c2cc(Cl)c3c(c2)NC(=O)C(C)(c2ccc([N+](=O)[O-])cc2)C3=O)CC1 (stereo not shown) [Example 49, 5-chloro-3-methyl-7-(4-methyl-piperazine-1-yl)-3-(4-nitro-phenyl)-1H-quinoline-2,4-dione] | 1020 nM | 70.2% | 26% | 10.5% | 12.4% | 0% | 1.4% | 33.4% | 19.8% | 24.4% |  | 
